Several values for one entry are separate records, joined by “and”; a condition that tells them apart may be missing. Identical values can stand only once. Entries after “also recorded” stand apart in the source; their conditions may differ.
Experiments:
male Sprague Dawley rats = assay: Clinical observations of rats during administration of propofol analogs in the pharmacokinetics study; details: for Rats recovered at: time post-10 min i.v. infusion, 0.168 mmol/Kg
Protocol: (§1) Blood samples were to be taken pre-dose, during dose and post dose at designated intervals, with the blood quickly processed and stored at −70° C. until analysis.
(§2) Formulations were prepared on the morning of the dosing day and each was passed through a 0.22 μm filter prior to being administered to animals. A standard dose of 0.168 mmol/Kg per analog was administered to each of the rats. […] Analog stability in the formulations was verified by preparing each formulation and harvesting 200 μL aliquots at 0, 1, 2 and 8 hr while standing at room temperature. After harvesting, each sample was immediately frozen in dry ice until analysis; concentrations of test compounds in the samples were examined by HPLC-UV.
(§3) The animals were surgically prepared with indwelling cannula, double cannulation in carotid artery and jugular vein for i.v. infusion. The anesthetic pentobarbital was used during the surgery, and the animals were allowed to recover 3-5 days after surgery before the formulation was dosed. The dose formulation was administered intravenously via the jugular vein cannula. The 16.8 μmol/mL formulation was administered i.v. at a rate of 1 mL/Kg/min for 10 min.

[1] = Pharmacokinetics: plasma concentrations of prodrug and propofol after intravenous infusion (LC/MS/MS); details: for Mean Concentration of Propofol in Rat Plasma After Intravenous Administration: analyte = propofol released from the administered compound; for Pro-drug behaviour (release of propofol in vivo): rats, releasing the propofol in a matter of minutes after infusion; for AUCinf / MRTinf: extrapolated to infinity; for AUClast: to last detected concentration; for CLp: total body clearance, dose/AUCinf; for Vdss: volume of distribution
Protocol: as §1, §2, §3
Approximately 0.20 mL blood was collected at each designated time point from carotid artery via a catheter. A total of 12 plasma samples were taken from each animal: 1 pre-dose; 2 during the dose (5 into the 10 min infusion and one just prior termination of the 10 min infusion) and 9 post-infusion at 2, 5, 15, 30 min and 1, 2, 3, 4, and 6 hr post-dose. All blood samples were transferred into plastic microcentrifuge tubes containing 5 μL of K2-EDTA (0.5M) as anti-coagulant and placed on ice until processed for plasma. Blood samples were processed for plasma by centrifugation at approximately 5° C. Plasma samples were then stored in 1.5 mL tubes, quick frozen over dry ice and kept at −70±10° C. until LC/MSMS analysis.
For each, a minimum of 6 standard point curve runs in duplicates, and minimum of 5 standards were back calculated to within ±20% of their nominal concentrations. The LLOQ of each test article in plasma was established and 6 QC samples were included in assay runs of samples to ensure assay performance.
Data Analysis. Plasma concentration versus time data was analyzed by non-compartmental approaches using the WinNonlin software program (version 5.2, Pharsight, Mountain View, Calif.) and the pharmacokinetic parameters T½, CL, Vss, AUC(0-t), AUC(0-inf), MRT, and graphs of plasma concentration versus time calculated for each.

[2] = Solubility determination in D2O by 1H NMR with DSS internal standard
Protocol: Thus the soapy-like solutions obtained were diluted until opalescent and diluted further until the opalescence visually disappeared.

[3] = analyte = administered compound, Time (h) 0
[4] = analyte = administered compound, Time (h) 0.083
[5] = analyte = administered compound, Time (h) 0.167
[6] = analyte = administered compound, Time (h) 0.2
[7] = analyte = administered compound, Time (h) 0.25
[8] = analyte = administered compound, Time (h) 0.417
[9] = analyte = administered compound, Time (h) 0.667
[10] = analyte = administered compound, Time (h) 1.166
[11] = analyte = administered compound, Time (h) 2.166
[12] = analyte = administered compound, Time (h) 3.166
[13] = analyte = administered compound, Time (h) 4.166
[14] = analyte = administered compound, Time (h) 6.166
[15] = analyte = administered compound
[16] = individual rats, post-10 min infusion, vehicle 10% Tween80
[17] = analyte = administered compound, rat plasma, IV infusion

| SMILES | Rats recovered at (male Sprague Dawley rats) | Mean concentration of prodrug and propofol in rat plasma after intravenous infusion administration [1, 3] | Mean concentration of prodrug and propofol in rat plasma after intravenous infusion administration [1, 4] | Mean concentration of prodrug and propofol in rat plasma after intravenous infusion administration [1, 5] | Mean concentration of prodrug and propofol in rat plasma after intravenous infusion administration [1, 6] | Mean concentration of prodrug and propofol in rat plasma after intravenous infusion administration [1, 7] | Mean concentration of prodrug and propofol in rat plasma after intravenous infusion administration [1, 8] | Mean concentration of prodrug and propofol in rat plasma after intravenous infusion administration [1, 9] | Mean concentration of prodrug and propofol in rat plasma after intravenous infusion administration [1, 10] | Mean concentration of prodrug and propofol in rat plasma after intravenous infusion administration [1, 11] | Mean concentration of prodrug and propofol in rat plasma after intravenous infusion administration [1, 12] | Mean concentration of prodrug and propofol in rat plasma after intravenous infusion administration [1, 13] | Mean concentration of prodrug and propofol in rat plasma after intravenous infusion administration [1, 14] | Mean Concentration of Propofol in Rat Plasma After Intravenous Administration ([1]; Time (h) 0) | Pro-drug behaviour (release of propofol in vivo) [1] | Relative solubility [2] | AUCinf [1, 15] | MRTinf [1, 15] | AUClast [1, 15] | Mean Concentration of Propofol in Rat Plasma After Intravenous Administration ([1]; Time (h) 4.166) | also measured |
| --- | --- | --- | --- | --- | --- | --- | --- | --- | --- | --- | --- | --- | --- | --- | --- | --- | --- | --- | --- | --- | --- |
| CC(C)c1cccc(C(C)C)c1OC(=O)OCCO[C@@H]1O[C@H](CO)[C@@H](O)[C@H](O)[C@H]1O [Compound 9] | recovered at about 30 min | BQL | BQL | BQL | BQL | BQL | BQL | BQL | BQL | BQL | BQL | BQL | BQL | BQL | very efficient pro-drugs | 8.6 | – | – | – | – | – |
| CC(C)c1cccc(C(C)C)c1OC(=O)OCCCO[C@@H]1O[C@H](CO)[C@@H](O)[C@H](O)[C@H]1O [Compound 12] | recovered at about 30 min | BQL | 4.11 nM | 6.78 nM | BQL | BQL | BQL | BQL | BQL | BQL | BQL | BQL | BQL | BQL | very efficient pro-drugs | 5.0 | 0.00122 µM·h | 6 min | 0.000773 µM·h | BQL | Mean Concentration of Propofol in Rat Plasma After Intravenous Administration ([1]; Time (h) 6.166): BQL |
| CC(C)c1cccc(C(C)C)c1OC(=O)NCCO[C@@H]1O[C@H](CO)[C@@H](O)[C@H](O)[C@H]1O [Compound 17] | – | BQL | 178796 nM | 312678 nM | 152206 nM | 119535 nM | 35206 nM | 19837 nM | 8012 nM | 2083 nM | 390.7 nM | 82.5 nM | 10.6 nM | BQL | – | – | 71.764 µM·h | 16.6 min | 61.644 µM·h | BQL | Rat died at infusion of (male Sprague Dawley rats; Additional Rat 4, during infusion, vehicle 10% Tween80): infusion of 8 min.; Rat died at (male Sprague Dawley rats; Rat 3, post-10 min infusion, vehicle 10% Tween80): 1.5 h; Overall outcome in rats (male Sprague Dawley rats; in its vehicle (10% tween80 cosolvent)): poor results; Rat died at (male Sprague Dawley rats; [16]): died at 15 min. and 40 min; Rat recovered (from breathlessness) at (male Sprague Dawley rats; [16]): recovered at 10 min.; died at; Cause of death (male Sprague Dawley rats; individual rats, vehicle 10% Tween80): blood hemolysis; also recorded: hematuria; CLp [1, 15]: 39.1 mL/min/kg; Vdss [1, 15]: 0.657 L/kg; Mean Concentration of Propofol in Rat Plasma After Intravenous Administration ([1]; Time (h) 2.166): BQL; Mean Concentration of Propofol in Rat Plasma After Intravenous Administration ([1]; Time (h) 3.166): BQL; Mean Concentration of Propofol in Rat Plasma After Intravenous Administration ([1]; Time (h) 6.166): BQL; Water solubility (qualitative) ([2]; reason for cosolvent): poor |
| CC(C)c1cccc(C(C)C)c1OC(=O)OCCO[C@@H]1O[C@H](CO)[C@@H](OC2O[C@H](CO)[C@@H](O)[C@H](O)[C@H]2O)[C@H](O)[C@H]1O (stereo partly shown) [Compound 24] | recovered at about 30 min | BQL | 3200 nM | 7740 nM | 1029 nM | 751 nM | 36 nM | 11.2 nM | 3.01 nM | BQL | 4.2 nM | BQL | BQL | BQL | very efficient pro-drugs | >20 | 0.791 µM·h | 12.4 min | 0.786 µM·h | – | Cmax [1, 17]: 8100 nM; Tmax [1, 17]: 8.4 min; t1/2 [1, 17]: 53.2 min; CLp [1, 15]: 5804 mL/min/kg; Vdss [1, 15]: 120 L/kg; solubility ([2]; D2O, water, thermodynamic from solid): > 20 mM |

Source: patent US9023813B2 (Nutek Pharma Ltd., priority 2012, dated 2015)
